Among the data in ChEMBL document CHEMBL1132318, “Hydroxylated decahydroquinolines as ligands for the vesicular acetylcholine transporter: synthesis and biological evaluation” (J Med Chem, 1999) are Ki values, retold here.

What is called Ki is the equilibrium dissociation constant of an inhibitor or competing ligand from its target.

The nature of assay [1]: Displacement of [3H]vesamicol from Vesicular Acetylcholine Transporter (VAChT). (Displacement assays read how much labelled ligand stays bound in the presence of the test substance.)
Assay [2] is described as follows: Binding affinity against Sigma opioid receptor type 1 in guinea pig brain membranes using [3H](+)-pentazocine as radioligand.

Structures are written as SMILES.

The compound `O[C@@H]1CCN(Cc2cccc(I)c2)C[C@H]1N1CCC(c2ccccc2)CC1` (racemic) came in with a Ki in assay [1] of 0.13 nM.
Regarding `O[C@@H]1CCCC[C@H]1N1CCC(c2ccccc2)CC1` [VESAMICOL], the Ki in assay [2] was 26 nM.
